Holding throughout (type): functional
In assay [1] the test system is Streptococcus pneumoniae. The assay is described as follows: Antibacterial activity against moxifloxacin resistance selected Streptococcus pneumoniae 24 with GyrA S81Y, GyrB P413S and ParC S79F mutation after 10 antibiotic-free subcultures by macrodilution method.
For assay [2], the system named is Streptococcus pneumoniae. The assay is described as follows: Antibacterial activity against azithromycin resistance selected Streptococcus pneumoniae 2527 after 10 antibiotic-free subcultures by macrodilution method.
The test system of assay [3] is Streptococcus pneumoniae. The assay is described as follows: Antibacterial activity against gatifloxacin resistance selected Streptococcus pneumoniae 37 with GyrA S81Y, GyrB E474K and ParC S79Y mutation after 10 antibiotic-free subcultures by macrodilution method.
In assay [4] the test system is Streptococcus pneumoniae. The assay is described as follows: Antibacterial activity against Streptococcus pneumoniae assessed as period of suppression of bacterial growth.
Assay [5] relates to Streptococcus pneumoniae. The assay is described as follows: Antibacterial activity against levofloxacin resistance selected Streptococcus pneumoniae 3009 with GyrA S81Y and ParC S79Y mutation after 10 antibiotic-free subcultures by macrodilution method.
Assay [6] deals with Streptococcus pneumoniae. The assay is described as follows: Antibacterial activity against gatifloxacin resistance selected Streptococcus pneumoniae 3009 after 10 antibiotic-free subcultures by macrodilution method.
Assay [7] relates to Streptococcus pneumoniae. The assay is described as follows: Antibacterial activity against moxifloxacin resistance selected Streptococcus pneumoniae 3009 with GyrA S81F and ParC D83N mutation after 10 antibiotic-free subcultures by macrodilution method.
Assay [8] deals with Streptococcus pneumoniae. The assay is described as follows: Antibacterial activity against clarithromycin resistance selected Streptococcus pneumoniae 3009 after 10 antibiotic-free subcultures by macrodilution method.
Assay [9] relates to Streptococcus pneumoniae. The assay is described as follows: Antibacterial activity against moxifloxacin resistance selected Streptococcus pneumoniae 1076 with ParC S79Y mutation after 10 antibiotic-free subcultures by macrodilution method.
Assay [10] relates to Streptococcus pneumoniae. The assay is described as follows: Antibacterial activity against gatifloxacin resistance selected Streptococcus pneumoniae 1076 with ParC S79Y mutation after 10 antibiotic-free subcultures by macrodilution method.
The test system of assay [11] is Streptococcus pneumoniae. The assay is described as follows: Antibacterial activity against azithromycin resistance selected Streptococcus pneumoniae 1077 with 23S rRNA A2058G mutation after 10 antibiotic-free subcultures by macrodilution method.
The subject of assay [12] is Streptococcus pneumoniae. The assay is described as follows: Antibacterial activity against moxifloxacin resistance selected Streptococcus pneumoniae 3665 with GyrA S81Y mutation after 10 antibiotic-free subcultures by macrodilution method.
The subject of assay [13] is Streptococcus pneumoniae. The assay is described as follows: Antibacterial activity against clarithromycin resistance selected Streptococcus pneumoniae 3665 after 10 antibiotic-free subcultures by macrodilution method.
The subject of assay [14] is Streptococcus pneumoniae. The assay is described as follows: Antibacterial activity against moxifloxacin resistance selected Streptococcus pneumoniae 3676 with GyrA E85G, GyrB S478I and ParC S79Y mutation after 10 antibiotic-free subcultures by macrodilution method.
The test system of assay [15] is Streptococcus pneumoniae. The assay is described as follows: Antibacterial activity against clarithromycin resistance selected Streptococcus pneumoniae 3676 after 10 antibiotic-free subcultures by macrodilution method.
The test system of assay [16] is Streptococcus pneumoniae. The assay is described as follows: Antibacterial activity against moxifloxacin resistance selected Streptococcus pneumoniae 3243 after 10 antibiotic-free subcultures by macrodilution method.
The test system of assay [17] is Streptococcus pneumoniae. The assay is described as follows: Antibacterial activity against azithromycin resistance selected Streptococcus pneumoniae 3243 with L22 insertion 93SFRPRA94 mutation after 10 antibiotic-free subcultures by macrodilution method.
For assay [18], the system named is Streptococcus pneumoniae. The assay is described as follows: Antibacterial activity against clarithromycin resistance selected Streptococcus pneumoniae 3243 with 23S rRNA A2059T mutation after 10 antibiotic-free subcultures by macrodilution method.
Assay [19] has as its system Streptococcus pneumoniae. The assay is described as follows: Antibacterial activity against moxifloxacin resistance selected Streptococcus pneumoniae 19 with GyrA S81F mutation after 10 antibiotic-free subcultures by macrodilution method.
Assay [20] deals with Streptococcus pneumoniae. The assay is described as follows: Antibacterial activity against levofloxacin resistance selected Streptococcus pneumoniae 19 with GyrA S81Y and ParC D83Y mutation after 10 antibiotic-free subcultures by macrodilution method.

Each structure is given as a SMILES string. ≈ marks a conversion by molar mass, not a printed value.

In the case of `CO/N=C(\C(=O)N[C@@H]1C(=O)N2C(C(=O)O)=C(CSc3nc(=O)c(O)nn3C)CS[C@H]12)c1csc(N)n1` [CEFTRIAXONE], the MIC in assay [1] amounted to 1 mg/L (≈ 1.8 µM); in [2], 2 mg/L (≈ 3.61 µM); in assay [3] it was 2 mg/L (≈ 3.61 µM); in assay [5], 0.016 mg/L (≈ 0.0289 µM); in [6], 0.016 mg/L (≈ 0.0289 µM); in assay [7], 0.03 mg/L (≈ 0.0541 µM). In addition, the MIC in assay [8] was 0.016 mg/L (≈ 0.0289 µM); in assay [9], 0.016 mg/L (≈ 0.0289 µM); in assay [10], 0.016 mg/L (≈ 0.0289 µM); in assay [11], 0.03 mg/L (≈ 0.0541 µM); in assay [12], 0.06 mg/L (≈ 0.108 µM); in assay [13] it was 0.03 mg/L (≈ 0.0541 µM). In addition, the MIC in [14] was 0.03 mg/L (≈ 0.0541 µM); in assay [15], 0.03 mg/L (≈ 0.0541 µM); in assay [16], not above 0.008 mg/L; in [17], 0.125 mg/L (≈ 0.225 µM); in assay [18] it was 0.125 mg/L (≈ 0.225 µM); in [19] it was 2 mg/L (≈ 3.61 µM). The same molecule displayed an MIC in assay [20] of 2 mg/L (≈ 3.61 µM). Besides, the “Post Antibiotic Effe” value in assay [4] came to 1.3 h.
Take `CO/N=C(\C(=O)N[C@@H]1C(=O)N2C(C(=O)O)=C(COC(N)=O)CS[C@H]12)c1ccco1` [CEFUROXIME]: the MIC was 2 mg/L (≈ 4.71 µM) in assay [1]; 16 mg/L (≈ 37.7 µM) in [2]; 2 mg/L (≈ 4.71 µM) in [3]; not above 0.016 mg/L in assay [5]; 0.03 mg/L (≈ 0.0707 µM) in [6]; 0.03 mg/L (≈ 0.0707 µM) in assay [7]. Further, the MIC in assay [8] turned out to be 0.03 mg/L (≈ 0.0707 µM); in [9], 0.03 mg/L (≈ 0.0707 µM); in assay [10] it was 0.125 mg/L (≈ 0.295 µM); in assay [11], 0.03 mg/L (≈ 0.0707 µM); in [12], 0.5 mg/L (≈ 1.18 µM); in assay [13], 0.125 mg/L (≈ 0.295 µM). For the same molecule, the MIC in assay [14] turned out to be 0.125 mg/L (≈ 0.295 µM); in assay [15], 0.125 mg/L (≈ 0.295 µM); in [16] it was 0.25 mg/L (≈ 0.589 µM); in assay [17] it was 0.5 mg/L (≈ 1.18 µM); in assay [18], 0.25 mg/L (≈ 0.589 µM); in assay [19], 2 mg/L (≈ 4.71 µM). For the same molecule, the MIC in assay [20] stood at 2 mg/L (≈ 4.71 µM). Further, the “Post Antibiotic Effe” value in assay [4] was 1.5 h.
For `C=CC1=C(C(=O)O)N2C(=O)[C@@H](NC(=O)/C(=N\O)c3csc(N)n3)[C@H]2SC1`, the MIC in [1] is 2 mg/L (≈ 5.06 µM); in assay [2] it was 16 mg/L (≈ 40.5 µM); in assay [3] it was 4 mg/L (≈ 10.1 µM); in [5], 0.06 mg/L (≈ 0.152 µM); in assay [6], 0.125 mg/L (≈ 0.316 µM); in [7], 0.06 mg/L (≈ 0.152 µM). Also, the MIC in [8] was found to be 0.125 mg/L (≈ 0.316 µM); in assay [9], 0.06 mg/L (≈ 0.152 µM); in [10] it was 0.125 mg/L (≈ 0.316 µM); in [11] it was 0.06 mg/L (≈ 0.152 µM); in assay [12], 0.125 mg/L (≈ 0.316 µM); in assay [13], 0.25 mg/L (≈ 0.632 µM). Besides, the minimum inhibitory concentration (MIC) in [14] came out at 0.125 mg/L (≈ 0.316 µM); in [15], 0.06 mg/L (≈ 0.152 µM); in [16], 0.06 mg/L (≈ 0.152 µM); in assay [17], 0.125 mg/L (≈ 0.316 µM); in assay [18], 0.25 mg/L (≈ 0.632 µM); in assay [19] it was 2 mg/L (≈ 5.06 µM). In [20], this molecule yielded an MIC of 4 mg/L (≈ 10.1 µM). Moreover, the “Post Antibiotic Effe” value in [4] is 1.6 h.

By MIC is commonly meant the lowest concentration that inhibits growth of the organism.

Values taken from ChEMBL document CHEMBL1142186, “Multistep resistance selection and postantibiotic-effect studies of the antipneumococcal activity of LBM415 compared to other agents” (2007).
